Laboratory results from patent publication US20220041606A1, “POSITIVE ALLOSTERIC MODULATORS OF THE MUSCARINIC ACETYLCHOLINE RECEPTOR M1” (Vanderbilt University, priority 2020, published 2022).
pEC50: −log10 of the molar value.

Legend:
human mAChR M1 [1] = target: T1, human mAChR M1 (Homo sapiens, UniProt P11229); test: mAChR M1 cell-based functional assay (calcium mobilization), PAM activity: increase in the EC20 acetylcholine response; conditions: CHO-K1 cells expressing hM1; potentiation of EC20 acetylcholine response
T1 construct: host or cells: CHO-K1 cells (ATCC), stably transfected using Lipofectamine2000
T1 sequence (P11229 1-460): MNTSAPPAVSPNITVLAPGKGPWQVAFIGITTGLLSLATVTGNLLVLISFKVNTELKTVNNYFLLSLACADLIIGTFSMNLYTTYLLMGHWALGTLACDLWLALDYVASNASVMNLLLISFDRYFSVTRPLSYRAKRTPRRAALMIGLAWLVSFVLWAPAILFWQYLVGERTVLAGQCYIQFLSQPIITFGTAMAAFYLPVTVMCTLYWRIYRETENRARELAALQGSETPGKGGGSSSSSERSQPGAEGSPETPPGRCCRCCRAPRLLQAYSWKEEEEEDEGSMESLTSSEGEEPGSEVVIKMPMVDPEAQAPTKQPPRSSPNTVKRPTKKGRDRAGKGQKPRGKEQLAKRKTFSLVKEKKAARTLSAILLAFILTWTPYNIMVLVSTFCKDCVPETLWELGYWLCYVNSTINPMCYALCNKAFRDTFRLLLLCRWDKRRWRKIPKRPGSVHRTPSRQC
Source text: (§1) Chinese hamster ovary (CHO-K1) cells stably expressing rat (r)M1 were purchased from the American Type Culture Collection and cultured according to their indicated protocol. CHO cells stably expressing human (h)M2, hM3, and hM5 were described previously (Levey, et al., 1991); hM1 and hM4 cDNAs were purchased from Missouri S&T cDNA Resource; rM4 cDNA was provided by T. L. Bonner (National Institutes of Health, Bethesda, MID). rM2 and rM3 were cloned from a rat brain cDNA library and sequence verified. hM1, rM2, rM3, hM4, and rM4 cDNAs were used to stably transfect CHO-K1 cells purchased from the American Type Culture Collection using Lipofectamine2000. To make stable rM2, hM2, rM3, hM4, and rM4 cell lines for use in calcium mobilization assays, these cells also were stably transfected with a chimeric G-protein (Gqi5) (provided by B. R. Conklin, University of California, San Francisco) using Lipofectamine 2000. rM1, hM1, rM3, hM3, rM5, and hM5 cells were grown in Ham's F-12 medium containing 10% heat-inactivated fetal bovine serum (FBS), 20 mM HEPES, and 50 μg/mL G418 sulfate. rM2-Gq15, hM2-Gqi5, and hM4-Gqi5 cells were grown in the same medium also containing 500 μg/mL Hygromycin B. Stable rM4-Gqi5 cells were grown in DMEM containing 10% heat-inactivated FBS, 20 mM HEPES, 400 μg/mL G418 sulfate, and 500 μg/mL Hygromycin B.
(§2) For high throughput measurement of agonist-evoked increases in intracellular calcium, CHO-K1 cells stably expressing muscarinic receptors were plated in growth medium lacking G418 and hygromycin at 15,000 cells/20 μL/well in Greiner 384-well black-walled, tissue culture (TC)-treated, clear-bottom plates (VWR). Cells were incubated overnight at 37° C. and 5% CO2. The next day, cells were washed using an ELX 405 (BioTek) with four washes (80 μL) of assay buffer then aspirated to 20 μL. Next, 20 μL of 16 μM Fluo-4/acetoxymethyl ester (Invitrogen, Carlsbad, Calif.) prepared as a 2.3 mM stock in DMSO and mixed in a 1:1 ratio with 10% (w/v) Pluronic F-127 and diluted in assay buffer was added to the wells and the cell plates were incubated for 50 min at 37° C. and 5% CO2. Dye was removed by washing with the ELX 405 (four 80 μL washes of assay buffer) then aspirated to 20 μL. Compound master plates were formatted in an 11 point CRC format (1:3 dilutions) in 100% DMSO with a starting concentration of 10 mM using the BRAVO liquid handler (Agilent). Test compound CRCs were then transferred to daughter plates (240 nL) using the Echo acoustic plate reformatter (Labcyte, Sunnyvale, Calif.) and then diluted into assay buffer (40 μL) to a 2× stock using a Thermo Fisher Combi (Thermo Fisher Scientific, Waltham, Mass.).
(§3) Calcium flux was measured using the Functional Drug Screening System (FDSS) 6000 (Hamamatsu Corporation, Tokyo, Japan) as an increase in the fluorescent static ratio. Compounds were applied to cells (20 μL, 2×) using the automated system of the FDSS 6000 at 4 s into the 300 s protocol and the data were collected at 1 Hz. At 144 s into the 300s protocol, 10 μL of an EC20 concentration of the muscarinic receptor agonist acetylcholine was added (5×), followed by the addition of 12 μL an EC80 concentration of acetylcholine at the 230 s time point (5×). Agonist activity was analyzed as a concentration-dependent increase in calcium mobilization upon compound addition. Emax values for agonist activity are expressed relative to the maximum for acetylcholine. Positive allosteric modulator activity was analyzed as a concentration-dependent increase in the EC20 acetylcholine response. Antagonist activity was analyzed as a concentration-dependent decrease in the EC80 acetylcholine response. Concentration-response curves were generated using a four-parameter logistical equation in XLfit curve fitting software (IDBS, Bridgewater, N.J.) for Excel (Microsoft, Redmond, Wash.) or Prism (GraphPad Software, Inc., San Diego, Calif.). […]

human mAChR M1 [2] = target: T1, human mAChR M1; test: mAChR M1 cell-based functional assay (calcium mobilization), agonist activity upon compound addition; conditions: CHO-K1 cells expressing hM1; for pEC50: compound alone, before acetylcholine addition; for Emax: relative to the maximum for acetylcholine
Source text: as §1, §2, §3

Work on `CC(C)[C@@H](CO)NC(=O)c1cn(Cc2ccc(-c3cnn(C)c3)cc2F)c(=O)c2nccnc12` [Compound A82, (S)-6-(2-fluoro-4-(1-methyl-1H-pyrazol-4-yl)benzyl)-N-(1-hydroxy-3-methylbutan-2-yl)-5-oxo-5,6-dihydropyrido[3,4-b]pyrazine-8-carboxamide] yielded a pEC50 (human mAChR M1 [1]) of at most 5.00, an Emax (human mAChR M1 [1]) of 26% and a pEC50 (human mAChR M1 [2]) of under 5.00. It also gave an Emax (human mAChR M1 [2]) of under 5%.

For `Cn1cc2c(-c3cc(F)c(Cn4cc(C(=O)N[C@H]5CCOC[C@@H]5O)c5ncncc5c4=O)c(F)c3)cccc2n1` [Compound A84, 6-(2,6-difluoro-4-(2-methyl-2H-indazol-4-yl)benzyl)-N-((3R,4S)-3-hydroxytetrahydro-2H-pyran-4-yl)-5-oxo-5,6-dihydropyrido[4,3-d]pyrimidine-8-carboxamide], the pEC50 (human mAChR M1 [1]) was at most 5.00, the Emax (human mAChR M1 [1]) was 40% and the pEC50 (human mAChR M1 [2]) was under 5.00. It also gave an Emax (human mAChR M1 [2]) of under 5%.

`Cn1ccc(-c2ccc(Cn3cc(C(=O)N[C@H]4CCCC[C@@H]4O)c4nccnc4c3=O)c(F)c2)n1` [Compound A55, 6-(2-fluoro-4-(1-methyl-1H-pyrazol-3-yl)benzyl)-N-((1S,2S)-2-hydroxycyclohexyl)-5-oxo-5,6-dihydropyrido[3,4-b]pyrazine-8-carboxamide] gave a pEC50 (human mAChR M1 [1]) of 5.10, an Emax (human mAChR M1 [1]) of 67% and a pEC50 (human mAChR M1 [2]) of under 5.00. The Emax (human mAChR M1 [2]) was 12%.

With `Cc1cc(-c2cc(F)c(Cn3cc(C(=O)N[C@H]4CCCC[C@@H]4O)c4ncccc4c3=O)c(F)c2)ccn1` [Compound A37, 6-(2,6-difluoro-4-(2-methylpyridin-4-yl)benzyl)-N-((1S,2S)-2-hydroxycyclohexyl)-5-oxo-5,6-dihydro-1,6-naphthyridine-8-carboxamide] the pEC50 (human mAChR M1 [1]) was 6.11, the Emax (human mAChR M1 [1]) was 46% and the pEC50 (human mAChR M1 [2]) was under 5.00. The Emax (human mAChR M1 [2]) was under 5%.

`Cn1nccc1-c1ccc(Cn2cc(C(=O)N[C@H]3CCCC[C@@H]3O)c3ncccc3c2=O)c(F)c1` [Compound A46, 6-(2-fluoro-4-(1-methyl-1H-pyrazol-5-yl)benzyl)-N-((1S,2S)-2-hydroxycyclohexyl)-5-oxo-5,6-dihydro-1,6-naphthyridine-8-carboxamide] gave a pEC50 (human mAChR M1 [1]) of 5.95, an Emax (human mAChR M1 [1]) of 41% and a pEC50 (human mAChR M1 [2]) of under 5.00. It also gave an Emax (human mAChR M1 [2]) of under 5%.

`Cn1cc(-c2ccc(Cn3cc(C(=O)N[C@H]4CCCCC[C@@H]4O)c4ncccc4c3=O)cc2)cn1` [Compound A87, N-((1S,2S)-2-hydroxycycloheptyl)-6-(4-(1-methyl-1H-pyrazol-4-yl)benzyl)-5-oxo-5,6-dihydro-1,6-naphthyridine-8-carboxamide] gave a pEC50 (human mAChR M1 [1]) of 6.09, an Emax (human mAChR M1 [1]) of 44% and a pEC50 (human mAChR M1 [2]) of under 5.00. For the same molecule, the Emax (human mAChR M1 [2]) was under 5%.

Work on `Cc1cc(C)cc(-c2ccc(Cn3cc(C(=O)N[C@H]4CCOC[C@@H]4O)c4ncccc4c3=O)c(F)c2)c1` [Compound A30, 6-((3-fluoro-3′,5′-dimethyl-[1,1′-biphenyl]-4-yl)methyl)-N-((3R,4S)-3-hydroxytetrahydro-2H-pyran-4-yl)-5-oxo-5,6-dihydro-1,6-naphthyridine-8-carboxamide] yielded a pEC50 (human mAChR M1 [1]) of 5.34, an Emax (human mAChR M1 [1]) of 47% and a pEC50 (human mAChR M1 [2]) of under 5.00. For the same molecule, the Emax (human mAChR M1 [2]) was under 5%.

Work on `O=C(N[C@H]1CCCC[C@@H]1O)c1cn(Cc2ccc(-n3cccn3)cc2)c(=O)c2cccnc12` [Compound A13, 6-(4-(1H-pyrazol-1-yl)benzyl)-N-((1S,2S)-2-hydroxycyclohexyl)-5-oxo-5,6-dihydro-1,6-naphthyridine-8-carboxamide] yielded a pEC50 (human mAChR M1 [1]) of 5.95, an Emax (human mAChR M1 [1]) of 71% and a pEC50 (human mAChR M1 [2]) of 5.05. It also gave an Emax (human mAChR M1 [2]) of 21%.

For `Cn1cc(-c2ccc(Cn3cc(C(=O)N[C@H]4CCOC[C@@H]4O)c4ncccc4c3=O)c(F)c2)cn1` [Compound A6, 6-(2-fluoro-4-(1-methyl-1H-pyrazol-4-yl)benzyl)-N-((3R,4S)-3-hydroxytetrahydro-2H-pyran-4-yl)-5-oxo-5,6-dihydro-1,6-naphthyridine-8-carboxamide], the pEC50 (human mAChR M1 [1]) was 6.66, the Emax (human mAChR M1 [1]) was 89% and the pEC50 (human mAChR M1 [2]) was 5.09. For the same molecule, the Emax (human mAChR M1 [2]) was 23%.

`O=C(N[C@H]1CCCCC[C@@H]1O)c1cn(Cc2ccc(-n3cccn3)cc2)c(=O)n2ccnc12` [Compound B16, 6-(4-(1H-pyrazol-1-yl)benzyl)-N-((1S,2S)-2-hydroxycycloheptyl)-5-oxo-5,6-dihydroimidazo[1,2-c]pyrimidine-8-carboxamide] gave a pEC50 (human mAChR M1 [1]) of 6.28, an Emax (human mAChR M1 [1]) of 81% and a pEC50 (human mAChR M1 [2]) of under 5.00. For the same molecule, the Emax (human mAChR M1 [2]) was under 5%.

`Cn1cc(-c2ccc(Cn3cc(C(=O)NC4CC5(COC5)C4)c4occc4c3=O)c(F)c2)cn1` [Compound D17, 5-(2-fluoro-4-(1-methyl-1H-pyrazol-4-yl)benzyl)-4-oxo-N-(2-oxaspiro[3.3]heptan-6-yl)-4,5-dihydrofuro[3,2-c]pyridine-7-carboxamide] showed a pEC50 (human mAChR M1 [1]) of under 5.00, an Emax (human mAChR M1 [1]) of 40% and a pEC50 (human mAChR M1 [2]) of under 5.00. The Emax (human mAChR M1 [2]) was under 5%.

In the case of `O=C(N[C@H]1CCC[C@@H]1O)c1cn(Cc2ccc(-n3cccn3)cc2)c(=O)c2nccnc12` [Compound A61, 6-(4-(1H-pyrazol-1-yl)benzyl)-N-((1S,2S)-2-hydroxycyclopentyl)-5-oxo-5,6-dihydropyrido[3,4-b]pyrazine-8-carboxamide], the pEC50 (human mAChR M1 [1]) was at most 5.00, the Emax (human mAChR M1 [1]) was 33% and the pEC50 (human mAChR M1 [2]) was under 5.00. The Emax (human mAChR M1 [2]) was under 5%.

Work on `O=C(N[C@H]1CCOC[C@@H]1O)c1cn(Cc2ccc(-n3cccn3)cc2)c(=O)c2cccnc12` [Compound A12, 6-(4-(1H-pyrazol-1-yl)benzyl)-N-((3R,4S)-3-hydroxytetrahydro-2H-pyran-4-yl)-5-oxo-5,6-dihydro-1,6-naphthyridine-8-carboxamide] yielded a pEC50 (human mAChR M1 [1]) of 5.86, an Emax (human mAChR M1 [1]) of 70% and an Emax (human mAChR M1 [2]) of 28%.

`O=C(N[C@H]1CCOC[C@@H]1O)c1cn(Cc2ccc(-n3cccn3)cc2)c(=O)n2ccnc12` [Compound B12, 6-(4-(1H-Pyrazol-1-yl)benzyl)-N-((3R,4S)-3-hydroxytetrahydro-2H-pyran-4-yl)-5-oxo-5,6-dihydroimidazo[1,2-c]pyrimidine-8-carboxamide] showed a pEC50 (human mAChR M1 [1]) of 6.42, an Emax (human mAChR M1 [1]) of 67% and a pEC50 (human mAChR M1 [2]) of 5.22. For the same molecule, the Emax (human mAChR M1 [2]) was 55%.

Molecule `Cc1ccc(-c2cc(F)c(Cn3cc(C(=O)N[C@H]4CCOC[C@@H]4O)c4ncccc4c3=O)c(F)c2)cn1` [Compound A34, 6-(2,6-difluoro-4-(6-methylpyridin-3-yl)benzyl)-N-((3R,4S)-3-hydroxytetrahydro-2H-pyran-4-yl)-5-oxo-5,6-dihydro-1,6-naphthyridine-8-carboxamide] has a pEC50 (human mAChR M1 [1]) of 6.21, an Emax (human mAChR M1 [1]) of 65% and a pEC50 (human mAChR M1 [2]) of 5.54. For the same molecule, the Emax (human mAChR M1 [2]) was 12%.
